These results are taken from patent US20220257621A1, “CANCER CELL PROLIFERATION SUPPRESSION AGENT AND COMPOSITION FOR SUPPRESSING PROLIFERATION OF CANCER CELLS” (SHOWA DENKO K.K., priority 2019, published 2022).

Test [1] relates to normal human epidermal keratinocytes (NHEK). As to the kind of experiment: Effect (2) of suppressing ROS production, inositol derivative and Na tocopherol phosphate. It counts as cell-based. As to conditions: Na tocopherol phosphate 10 μM and/or inositol derivative 0.001% by mass 24 h, then atmospheric dust 500 μg/mL 48 h, control without dust = 1, dust + 0.05% ethanol = 2.41. Here is the method: The effect of the inositol derivative and Na tocopherol phosphate on suppressing ROS production in normal human epidermal keratinocytes (NHEK, manufactured by KURABO INDUSTRIES LTD.) was measured under the following conditions. As the following Na tocopherol phosphate, TPNa (registered trademark) (manufactured by Showa Denko K. K.), which is sodium d1-α-tocopheryl phosphate, was used.
The NHEK cells were seeded in a HuMedia KG2 medium manufactured by KURABO INDUSTRIES LTD. at the seeding density of 10000 cells/cm^2, and cultured for 24 hours under the conditions of 37° C. and 5% CO2. Next, Na tocopherol phosphate alone (final concentration of 10 μM in the culture medium), the inositol derivative alone (final concentration of 0.001% by mass in the culture medium), or a combination of Na tocopherol phosphate (final concentration of 10 μM in the culture medium) and the inositol derivative (final concentration of 0.001% by mass in the culture medium) was added to the culture medium. […] Thereafter, the ROS production amount was measured using a ROS assay kit (manufactured by OZ BIOSCIENCES). […] After washing the cells with PBS again, 100 μL of PBS was added, and the fluorescence intensity at an excitation wavelength of 485 nm/an absorption wavelength of 535 nm was measured with a microplate reader i-Control (manufactured by Tecan Group Ltd.). […]

Test [2] deals with cell line derived from Lewis lung carcinoma (LLC). As to the kind of experiment: Effect (2) of suppressing proliferation of cancer cells, inositol derivative and Na tocopherol phosphate (WST-8). It counts as cell-based. Particulars: Na tocopherol phosphate 10 μM and/or inositol derivative 0.001% by mass 24 h, then atmospheric dust 500 μg/mL 48 h, control without dust = 1, dust + 0.05% ethanol = 1.69. Here is the method: The effect of the inositol derivative and Na tocopherol phosphate on suppressing the proliferation of cancer cells in a cell line derived from Lewis lung carcinoma (LLC, JCRB Cell Bank) was measured under the following conditions. As the following Na tocopherol phosphate, TPNa (registered trademark) (manufactured by Showa Denko K. K.), which is sodium d1-α-tocopheryl phosphate, was used.
The LLC cells were seeded at the seeding density of 50000 cells/cm^2 in a culture medium in which a Ham F10 medium and an L15 medium (both manufactured by Sigma-Aldrich) were mixed at the ratio of 3:7 (volume ratio), and cultured for 24 hours under the conditions of 37° C. and 5% CO2. Next, Na tocopherol phosphate alone (final concentration of 10 μM in the culture medium), the inositol derivative alone (final concentration of 0.001% by mass in the culture medium), or a combination of Na tocopherol phosphate (final concentration of 10 μM in the culture medium) and the inositol derivative (final concentration of 0.001% by mass in the culture medium) was added to the culture medium. […] Thereafter, the culture medium was replaced with a medium containing 10% (V/V) of WST-8 of Nacalai Tesque Inc., and after further culturing for 3 hours, the absorbance at the wavelength of 450 nm was measured with a microplate reader i-Control (manufactured by Tecan Group Ltd.). […]

Each structure is given as a SMILES string.

In the case of `Cc1c(C)c2c(c(C)c1OP(=O)([O-])[O-])CCC(C)(CCCC(C)CCCC(C)CCCC(C)C)O2.[Na+].[Na+]` (stereo not drawn) [Na tocopherol phosphate, sodium d1-α-tocopheryl phosphate], the “Relative ROS production amount” value in test [1] amounted to 1.53. The “Relative cell proliferation amount” value in test [2] is given as 1.33.
